Source: the supplement of paper PMC11061612

What was measured:
Assay in all cases: Bliss excess, mean over the matrix (fraction); higher = more synergy
[1] = system: 23132-87 (Gastric Carcinoma)
In short: (§1)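 After 24 hours at 37°C and 5% CO2 in 1536-well plates, cells in DMEM/F12 or RPMI plus 10% FBS received two-drug dose matrices for 72 hours. Viability came from CellTiter-Glo 2.0 luminescence and was scaled as inhibition, anchored at 0 by vehicle wells and at 1 by blank wells. Combination Emax is taken as the second-highest inhibition in the matrix, and Bliss excess as the observed combination effect less EA + EB − EA·EB, with EA and EB the single-agent effects.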

A2058 (Melanoma) = system: A2058 (Melanoma)
In short: as §1

[2] = system: CAL-120 (Breast Carcinoma)
In short: as §1

[3] = system: CAL-62 (Thyroid Gland Carcinoma)
In short: as §1

[4] = system: GP5d (Colorectal Carcinoma)
In short: as §1

[5] = system: HSC-39 (Gastric Carcinoma)
In short: as §1

[6] = system: KE-37 (T-Lymphoblastic Leukemia)
In short: as §1

[7] = system: L-1236 (Hodgkin's Lymphoma)
In short: as §1

[8] = system: LB996-RCC (Kidney Carcinoma)
In short: as §1

[9] = system: LK-2 (Squamous Cell Lung Carcinoma)
In short: as §1

[10] = system: LXF-289 (Lung Adenocarcinoma)
In short: as §1

[11] = system: PSN1 (Pancreatic Carcinoma)
In short: as §1

[12] = system: REH (B-Lymphoblastic Leukemia)
In short: as §1

[13] = system: RERF-LC-Sq1 (Squamous Cell Lung Carcinoma)
In short: as §1

SF268 (Low Grade Glioma) = system: SF268 (Low Grade Glioma)
In short: as §1

[14] = system: SU-DHL-10 (B-Cell Non-Hodgkin's Lymphoma)
In short: as §1

[15] = system: TE-8 (Esophageal Squamous Cell Carcinoma)
In short: as §1

[16] = system: VAL (B-Cell Non-Hodgkin's Lymphoma)
In short: as §1

WM278 (Melanoma) = system: WM278 (Melanoma)
In short: as §1

WM793B (Melanoma) = system: WM793B (Melanoma)
In short: as §1

Structure (SMILES)	Bliss excess [1]	Bliss excess (A2058 (Melanoma))	Bliss excess [2]	Bliss excess [3]	Bliss excess [4]	Bliss excess [5]	Bliss excess [6]	Bliss excess [7]	Bliss excess [8]	Bliss excess [9]	Bliss excess [10]	Bliss excess [11]	Bliss excess [12]	Bliss excess [13]	Bliss excess (SF268 (Low Grade Glioma))	Bliss excess [14]	Bliss excess [15]	Bliss excess [16]	Bliss excess (WM278 (Melanoma))	Bliss excess (WM793B (Melanoma))
CCN(CCO)CCCOc1ccc2c(Nc3cc(CC(=O)Nc4cccc(F)c4)[nH]n3)ncnc2c1 [AZD2811] + C=CCn1c(=O)c2cnc(Nc3ccc(N4CCN(C)CC4)cc3)nc2n1-c1cccc(C(C)(C)O)n1 [AZD1775] (first compound max 1 µM, partner max 1 µM)	0.0208	-0.0059	-0.0576	0.0127	0.08	0.0224	0.0353	0.0198	0.0623	-0.0952	-0.012	-0.0007	0.0449	-0.0102	-0.0005	-0.0481	-0.016	-0.087	-0.0199	0.02
NC1(C(=O)N[C@@H](CCO)c2ccc(Cl)cc2)CCN(c2ncnc3[nH]ccc23)CC1 [Capivasertib] + C[C@@H]1COCCN1C2=NC(=NC(=C2)C3(CC3)[S@](=N)(=O)C)C4=C5C=CNC5=NC=C4 [AZD6738] (first compound max 10 µM, 7x7, partner max 10 µM)	0.0024	-0.0262	-0.0283	-0.0306	-0.103	-0.0181	-0.0061	-0.0645	-0.0418	-0.0189	-0.0889	-0.0084	-0.0859	-0.0719	-0.0617	-0.0359	-0.0784	-0.0735	-0.0637	-0.0919
NC1(C(=O)N[C@@H](CCO)c2ccc(Cl)cc2)CCN(c2ncnc3[nH]ccc23)CC1 [Capivasertib] + CC(=O)c1c(C)c2cnc(Nc3ccc(N4CCNCC4)cn3)nc2n(C2CCCC2)c1=O [Palbociclib] (first compound max 10 µM, 7x7, partner max 10 µM)	-0.0183	-0.0001	-0.0221	0.0169	-0.018	0.0906	0.0024	-0.0829	0.0312	0.0401	0.0199	0.0408	0.0022	0.0352	-0.055	0.0478	-0.0254	-0.0051	-0.0217	-0.0375
CC(=O)c1c(C)c2cnc(Nc3ccc(N4CCNCC4)cn3)nc2n(C2CCCC2)c1=O [Palbociclib] + Cc1c2c(nn1C)CSCc1cc(n(C)n1)CSc1cc(c3ccccc3c1)OCCCc1c(C(=O)O)n(C)c3c-2c(Cl)ccc13 [AZD5991] (first compound max 10 µM, 7x7, partner max 1 µM)	-0.198	0.0085	-0.0209	-0.0047	-0.069	-0.0383	0.0783	-0.0341	-0.0238	0.0076	0.008	-0.0111	-0.0213	-0.0228	0.0193	-0.0199	-0.108	0.0533	-0.0395	-0.0134
CCc1c2c(nc3ccc(O)cc13)-c1cc3c(c(=O)n1C2)COC(=O)[C@]3(O)CC [SN-38] + CN(C)CCCOc1ccc(-c2ccc3ncc4c(c3c2)n(C2CCOCC2)c(=O)n4C)cn1 [AZD0156] (first compound max 0.3 µM, 7x7, partner max 1 µM)	0.0322	0.0477	-0.0792	-0.0143	0.0624	0.0344	0.0603	-0.079	0.0011	0.0959	0.0639	-0.0198	-0.0093	0.114	0.0609	-0.0242	0.148	0	0.042	-0.0295
COc1cccc(OCCCN)c1-c1cc(Nc2cnc(C#N)cn2)n[nH]1 [Prexasertib] + CCc1c2c(nc3ccc(O)cc13)-c1cc3c(c(=O)n1C2)COC(=O)[C@]3(O)CC [SN-38] (first compound max 1 µM, 7x7, partner max 0.3 µM)	-0.0307	0.123	0.0574	-0.0543	-0.0173	0.0026	-0.0182	-0.0584	-0.0334	0.0915	-0.0201	0.0569	-0.0054	-0.0081	0.0097	0.035	0.0456	-0.0702	-0.0479	-0.0489
Cn1cnc2c(F)c(Nc3ccc(Br)cc3Cl)c(C(=O)NOCCO)cc21 [Selumetinib] + C=CCn1c(=O)c2cnc(Nc3ccc(N4CCN(C)CC4)cc3)nc2n1-c1cccc(C(C)(C)O)n1 [AZD1775] (first compound max 10 µM, partner max 1 µM)	-0.0804	-0.029	-0.0502	0.0273	-0.0796	-0.0725	0.0083	-0.0131	-0.0886	-0.0356	-0.0547	-0.0321	-0.0424	-0.0617	-0.125	0.0359	0.0076	-0.052	-0.0183	0.004
Cc1c2c(nn1C)CSCc1cc(n(C)n1)CSc1cc(c3ccccc3c1)OCCCc1c(C(=O)O)n(C)c3c-2c(Cl)ccc13 [AZD5991] + Cc1cc2ncnn2cc1Nc1ncc2c(n1)n(C1CCOCC1)c(=O)n2C [AZD7648] (first compound max 1 µM, 7x7, partner max 10 µM)	-0.0679	-0.067	-0.0059	-0.0187	-0.0338	0.0095	-0.0059	0.0299	-0.0662	0.0019	-0.0889	-0.0628	-0.0082	-0.0088	0.0006	0.0328	-0.069	-0.0356	-0.0428	-0.024
CN(C)CCCOc1ccc(-c2ccc3ncc4c(c3c2)n(C2CCOCC2)c(=O)n4C)cn1 [AZD0156] + CCN(CCO)CCCOc1ccc2c(Nc3cc(CC(=O)Nc4cccc(F)c4)[nH]n3)ncnc2c1 [AZD2811] (first compound max 1 µM, 7x7, partner max 1 µM)	-0.025	-0.0201	-0.0164	0.007	0.004	-0.0113	-0.0173	-0.0332	0.0375	0.0201	0.052	-0.0336	-0.0137	0.0325	-0.0204	-0.0813	-0.0073	-0.0341	-0.0259	0.0212
CC1(C)CCC(CN2CCN(c3ccc(C(=O)NS(=O)(=O)c4ccc(NCC5CCOCC5)c([N+](=O)[O-])c4)c(Oc4cnc5[nH]ccc5c4)c3)CC2)=C(c2ccc(Cl)cc2)C1 [Venetoclax] + C1CN(CCC1(C(=O)N[C@@H](CCO)C2=CC=C(C=C2)Cl)N)C3=NC=NC4=C3C=CN4 [Capivasertib] (first compound max 1 µM, 7x7, partner max 3 µM)	-0.0427	-0.0333	-0.0198	-0.0409	-0.0548	-0.0104	0.012	-0.0739	-0.0573	-0.0122	-0.0275	-0.0707	0.0111	-0.0391	-0.0095	-0.0078	-0.0569	0.0301	-0.0699	-0.029
COc1cccc2c1C(=O)c1c(O)c3c(c(O)c1C2=O)C[C@@](O)(C(=O)CO)C[C@@H]3O[C@H]1C[C@H](N)[C@H](O)[C@H](C)O1 [Doxorubicin] + Cc1cc2ncnn2cc1Nc1ncc2c(n1)n(C1CCOCC1)c(=O)n2C [AZD7648] (first compound max 1 µM, 7x7, partner max 10 µM)	0.049	0.0185	0.0064	0.0885	0.081	0.0909	0.0912	0.0332	0.0561	0.0925	0.0233	0.0173	0.177	0.0444	0.0462	0.0982	0.0947	0.0974	0.0204	0.0438
CC1(C)CCC(CN2CCN(c3ccc(C(=O)NS(=O)(=O)c4ccc(NCC5CCOCC5)c([N+](=O)[O-])c4)c(Oc4cnc5[nH]ccc5c4)c3)CC2)=C(c2ccc(Cl)cc2)C1 [Venetoclax] + Cn1cnc2c(F)c(Nc3ccc(Br)cc3Cl)c(C(=O)NOCCO)cc21 [Selumetinib] (first compound max 1 µM, 7x7, partner max 3 µM)	-0.0507	-0.005	-0.0174	-0.0114	0.01	-0.048	-0.0013	-0.0319	-0.0209	-0.0073	-0.0312	-0.0262	-0.0467	-0.0467	-0.0355	-0.0123	-0.0282	-0.0069	-0.0319	-0.0191
Cc1c2c(nn1C)CSCc1cc(n(C)n1)CSc1cc(c3ccccc3c1)OCCCc1c(C(=O)O)n(C)c3c-2c(Cl)ccc13 [AZD5991] + CCN(CCO)CCCOc1ccc2c(Nc3cc(CC(=O)Nc4cccc(F)c4)[nH]n3)ncnc2c1 [AZD2811] (first compound max 1 µM, 7x7, partner max 1 µM)	-0.0075	0.114	-0.0077	0.0397	-0.0319	0.0233	0.0133	0.0255	-0.0388	-0.0115	0.0912	-0.0467	0.0422	0.043	0.0835	-0.0133	-0.0138	-0.0541	0.0657	0.0264
COc1cc2ncnc(Nc3ccc(F)c(Cl)c3)c2cc1OCCCN1CCOCC1 [Gefitinib] + CC(C)n1c(=O)n(C)c2cnc3cc(F)c(-c4ccc(OCCCN5CCCCC5)nc4)cc3c21 [AZD1390] (first compound max 10 µM, 7x7, partner max 0.3 µM)	-0.025	-0.0343	-0.0446	-0.0451	-0.0359	0.0185	-0.0791	-0.0467	-0.0069	0.0037	-0.0717	-0.0338	-0.0498	-0.0938	-0.0727	-0.0254	-0.075	-0.0608	-0.0728	-0.0816
